Activity calls are given as the source filed them. The rule behind the calls is not given here.
Tests used:
Streptococcus pneumoniae [1] = experiment: Antibacterial activity against 5 x 10^6 CFU Streptococcus pneumoniae serotype 2 infected in semitherapeutic C57BL/6 mouse model assessed as bacterial count in lung at 6 mg/kg, ip measured after 1 day post infection; assay type: functional; conditions: route intraperitoneal
Streptococcus pneumoniae [2] = experiment: Antibacterial activity against 5 x 10^6 CFU Streptococcus pneumoniae serotype 2 infected in semitherapeutic C57BL/6 mouse model assessed as bacterial count in lung at 6 mg/kg, ip measured after 2 days post infection; assay type: functional; conditions: route intraperitoneal
Streptococcus pneumoniae [3] = experiment: Antibacterial activity against 5 x 10^6 CFU Streptococcus pneumoniae serotype 2 infected in semitherapeutic C57BL/6 mouse model assessed as bacterial count in spleen at 6 mg/kg, ip measured after 1 day post infection; assay type: functional; conditions: route intraperitoneal
Streptococcus pneumoniae [4] = experiment: Antibacterial activity against low dose 5 x 10^6 CFU Streptococcus pneumoniae serotype 2 infected in semitherapeutic C57BL/6 mouse model assessed as reduction of bacteremia at 6 mg/kg, ip measured after 3 dayss post infection; assay type: functional, organism-based; design: dose 6 mg/kg
Streptococcus pneumoniae [5] = experiment: Antibacterial activity against high dose 1.5 x 10^7 CFU Streptococcus pneumoniae serotype 2 infected in semitherapeutic C57BL/6 mouse model assessed as bacterial count in lung at 6 mg/kg, ip measured after 1 day post infection; assay type: functional; conditions: route intraperitoneal
Streptococcus pneumoniae [6] = experiment: Antibacterial activity against high dose 1.5 x 10^7 CFU Streptococcus pneumoniae serotype 2 infected in semitherapeutic C57BL/6 mouse model assessed as bacterial count in lung at 6 mg/kg, ip measured after 3 days post infection; assay type: functional; conditions: route intraperitoneal
Streptococcus pneumoniae [7] = experiment: Antibacterial activity against high dose 1.5 x 10^7 CFU Streptococcus pneumoniae serotype 2 infected in semitherapeutic C57BL/6 mouse model assessed as bacterial count in lung at 6 mg/kg, ip measured after 5 day post infection; assay type: functional; conditions: route intraperitoneal
Streptococcus pneumoniae [8] = experiment: Antibacterial activity against high dose 1.5 x 10^7 CFU Streptococcus pneumoniae serotype 2 infected in semitherapeutic C57BL/6 mouse model assessed as bacterial count in lung at 6 mg/kg, ip measured after 10 day post infection; assay type: functional; conditions: route intraperitoneal
Streptococcus pneumoniae [9] = experiment: Antibacterial activity against high dose 1.5 x 10^7 CFU Streptococcus pneumoniae serotype 2 infected in semitherapeutic C57BL/6 mouse model assessed as bacterial count in blood at 6 mg/kg, ip measured after 1 day post infection; assay type: functional; conditions: route intraperitoneal
Streptococcus pneumoniae [10] = experiment: Antibacterial activity against high dose 1.5 x 10^7 CFU Streptococcus pneumoniae serotype 2 infected in semitherapeutic C57BL/6 mouse model assessed as bacterial count in blood at 6 mg/kg, ip measured after 2 days post infection; assay type: functional; conditions: route intraperitoneal
Streptococcus pneumoniae [11] = experiment: Antibacterial activity against high dose 1.5 x 10^7 CFU Streptococcus pneumoniae serotype 2 infected in semitherapeutic C57BL/6 mouse model assessed as bacterial count in spleen at 6 mg/kg, ip measured after 1 day post infection; assay type: functional; conditions: route intraperitoneal
Streptococcus pneumoniae [12] = experiment: Antibacterial activity against high dose 1.5 x 10^7 CFU Streptococcus pneumoniae serotype 2 infected in semitherapeutic C57BL/6 mouse model assessed as bacterial count in liver at 6 mg/kg, ip measured after 1 day post infection; assay type: functional; conditions: route intraperitoneal
Streptococcus pneumoniae [13] = experiment: Antibacterial activity against high dose 1.5 x 10^7 CFU Streptococcus pneumoniae serotype 2 infected in semitherapeutic C57BL/6 mouse model assessed as reduction of bacteremia at 6 mg/kg, ip measured after 5 day post infection; assay type: functional, organism-based; design: dose 6 mg/kg
Streptococcus pneumoniae [14] = experiment: Antibacterial activity against high dose 1.5 x 10^7 CFU Streptococcus pneumoniae serotype 2 infected in semitherapeutic C57BL/6 mouse model assessed as reduction of bacteremia at 6 mg/kg, ip measured after 10 day post infection; assay type: functional, organism-based; design: dose 6 mg/kg
Streptococcus pneumoniae [15] = experiment: Antibacterial activity against high dose 1.5 x 10^7 CFU Streptococcus pneumoniae serotype 2 infected in therapeutic C57BL/6 mouse model assessed as bacterial count in lung at 6 mg/kg, ip measured after 5 day post infection; assay type: functional; conditions: route intraperitoneal
Streptococcus pneumoniae [16] = experiment: Antibacterial activity against high dose 1.5 x 10^7 CFU Streptococcus pneumoniae serotype 2 infected in therapeutic C57BL/6 mouse model assessed as bacterial count in blood at 6 mg/kg, ip measured after 4 days post infection; assay type: functional; conditions: route intraperitoneal
Streptococcus pneumoniae [17] = experiment: Antibacterial activity against low dose 5 x 10^6 CFU Streptococcus pneumoniae serotype 19 infected in semitherapeutic C57BL/6 mouse model assessed as bacterial count in lung at 6 mg/kg, ip measured after 1 day post infection; assay type: functional; conditions: route intraperitoneal
Streptococcus pneumoniae [18] = experiment: Antibacterial activity against low dose 5 x 10^6 CFU Streptococcus pneumoniae serotype 19 infected in semitherapeutic C57BL/6 mouse model assessed as bacterial count in lung at 6 mg/kg, ip measured after 3 days post infection; assay type: functional; conditions: route intraperitoneal
Streptococcus pneumoniae [19] = experiment: Antibacterial activity against low dose 5 x 10^6 CFU Streptococcus pneumoniae serotype 19 infected in semitherapeutic C57BL/6 mouse model assessed as bacteremic mouse at 6 mg/kg, ip measured after 2 days post infection; assay type: functional, organism-based; design: dose 6 mg/kg
Streptococcus pneumoniae [20] = experiment: Antibacterial activity against low dose 5 x 10^6 CFU Streptococcus pneumoniae serotype 19 infected in semitherapeutic C57BL/6 mouse model assessed as bacteremic mouse at 6 mg/kg, ip measured after 5 day post infection; assay type: functional, organism-based; design: dose 6 mg/kg
Streptococcus pneumoniae [21] = experiment: Antibacterial activity against high dose 1.5 x 10^7 CFU Streptococcus pneumoniae serotype 19 infected in semitherapeutic C57BL/6 mouse model assessed as bacterial count in lung at 6 mg/kg, ip measured after 4 days post infection; assay type: functional; conditions: route intraperitoneal
Streptococcus pneumoniae [22] = experiment: Antibacterial activity against high dose 1.5 x 10^7 CFU Streptococcus pneumoniae serotype 19 infected in semitherapeutic C57BL/6 mouse model assessed as bacterial count in lung at 6 mg/kg, ip measured after 5 day post infection; assay type: functional; conditions: route intraperitoneal
Streptococcus pneumoniae [23] = experiment: Antibacterial activity against high dose 1.5 x 10^7 CFU Streptococcus pneumoniae serotype 19 infected in semitherapeutic C57BL/6 mouse model assessed as reduction of bacteremia at 6 mg/kg, ip measured after 1 day post infection; assay type: functional, organism-based; design: dose 6 mg/kg
Streptococcus pneumoniae [24] = experiment: Antibacterial activity against high dose 1.5 x 10^7 CFU Streptococcus pneumoniae serotype 19 infected in semitherapeutic C57BL/6 mouse model assessed as reduction of bacteremia at 6 mg/kg, ip measured after 2 days post infection; assay type: functional, organism-based; design: dose 6 mg/kg
Streptococcus pneumoniae [25] = experiment: Antibacterial activity against high dose 1.5 x 10^7 CFU Streptococcus pneumoniae serotype 19 infected in semitherapeutic C57BL/6 mouse model assessed as bacteremic mice at 6 mg/kg, ip measured after 5 day post infection; assay type: functional, organism-based; design: dose 6 mg/kg
Streptococcus pneumoniae [26] = experiment: Antibacterial activity against 1.5 x 10^7 CFU Streptococcus pneumoniae serotype 2 infected in therapeutic C57BL/6 mouse model assessed as survival rate at 6 mg/kg, ip qd beginning 2 days post infection measured after 3 days post infection; assay type: functional; conditions: route intraperitoneal
Streptococcus pneumoniae [27] = experiment: Antibacterial activity against 1.5 x 10^7 CFU Streptococcus pneumoniae serotype 19 infected in therapeutic C57BL/6 mouse model assessed as survival rate at 6 mg/kg, ip qd beginning at time of infection measured after 6 days post infection; assay type: functional; conditions: route intraperitoneal
Streptococcus pneumoniae [28] = experiment: Antibacterial activity against 1.5 x 10^7 CFU Streptococcus pneumoniae serotype 2 infected in therapeutic C57BL/6 mouse model assessed as effect on lung permeability at 6 mg/kg, ip measured on day 3 post infection; assay type: functional, organism-based; design: dose 6 mg/kg
Streptococcus pneumoniae [29] = experiment: Antibacterial activity against 1.5 x 10^7 CFU Streptococcus pneumoniae serotype 2 infected in therapeutic C57BL/6 mouse model assessed as effect on leukocytes infiltration in BALF at 6 mg/kg, ip measured on day 3 post infection; assay type: functional, organism-based; design: dose 6 mg/kg
Streptococcus pneumoniae [30] = experiment: Antibacterial activity against 1.5 x 10^7 CFU Streptococcus pneumoniae serotype 2 infected in therapeutic C57BL/6 mouse model assessed as increase in serum compound level at 6 mg/kg, ip measured on day 3 post infection; assay type: functional, organism-based; design: dose 6 mg/kg

## CCCCCCCCCC(=O)N[C@@H](Cc1c[nH]c2ccccc12)C(=O)N[C@H](CC(N)=O)C(=O)N[C@@H](CC(=O)O)C(=O)N[C@@H]1C(=O)NCC(=O)N[C@@H](CCCN)C(=O)N[C@@H](CC(=O)O)C(=O)N[C@H](C)C(=O)N[C@@H](CC(=O)O)C(=O)NCC(=O)N[C@H](CO)C(=O)N[C@@H]([C@H](C)CC(=O)O)C(=O)N[C@@H](CC(=O)c2ccccc2N)C(=O)O[C@@H]1C
Streptococcus pneumoniae [1]
  log10cfu: 5.4
Streptococcus pneumoniae [2]
  log10cfu: 3.6
Streptococcus pneumoniae [3]
  log10cfu: 2.2
Streptococcus pneumoniae [4]
  Activity: Active
Streptococcus pneumoniae [5]
  log10cfu: 6
Streptococcus pneumoniae [6]
  log10cfu: 3.5
Streptococcus pneumoniae [7]
  log10cfu: 2.2
Streptococcus pneumoniae [8]
  log10cfu: 2.9
Streptococcus pneumoniae [9]
  log10cfu: 2.6
Streptococcus pneumoniae [10]
  log10cfu: 0.1
Streptococcus pneumoniae [11]
  log10cfu: 1.4
Streptococcus pneumoniae [12]
  log10cfu: 1.2
Streptococcus pneumoniae [13]
  Activity: Active
Streptococcus pneumoniae [14]
  Activity: Active
Streptococcus pneumoniae [15]
  log10cfu: 2.8
Streptococcus pneumoniae [16]
  log10cfu: 2.6
Streptococcus pneumoniae [17]
  log10cfu: 6.3
Streptococcus pneumoniae [18]
  log10cfu: 5.5
Streptococcus pneumoniae [19]
  Activity: Active
Streptococcus pneumoniae [20]
  Activity: Active
Streptococcus pneumoniae [21]
  log10cfu: 4.5
Streptococcus pneumoniae [22]
  log10cfu: 4.7
Streptococcus pneumoniae [23]
  Activity: Active
Streptococcus pneumoniae [24]
  Activity: Active
Streptococcus pneumoniae [25]
  Activity: Active
Streptococcus pneumoniae [26]
  Activity: 70%
Streptococcus pneumoniae [27]
  Activity: 40%
Streptococcus pneumoniae [28]
  Activity: Active
Streptococcus pneumoniae [29]
  Activity: Active
Streptococcus pneumoniae [30]
  Activity: Active

Source: ChEMBL document CHEMBL1240356, “Efficacy profiles of daptomycin for treatment of invasive and noninvasive pulmonary infections with Streptococcus pneumoniae” (2010)
